13 compounds from article PMC10989005, “Inter-phylum circulation of a beta-lactamase-encoding gene: a rare but observable event” (Antimicrobial Agents and Chemotherapy, 2024) can be followed below.

Molecules are shown by their SMILES.

One assay concerns the target T1, MUN-1 beta-lactamase.
T1 construct: gene blaMUN-1; full gene cloned in pTOPO-kanR, expressed in E. coli TOP10, purified by ion exchange; no tag mentioned
As to the kind of experiment: beta-lactamase inhibition. The format is biochemical, Escherichia coli. As to conditions: covalent (known mechanism); reporter substrate and buffer only in supplement.
As to `NC(=O)[C@@H]1CC[C@@H]2CN1C(=O)N2OS(=O)(=O)O` [avibactam], the midpoint of inhibition, the IC50, lay at 3.8 nM.
Turning to `O=C(O)[C@H]1/C(=C/CO)O[C@@H]2CC(=O)N21` [clavulanic acid], the IC50 was 0.32 nM.
`C[C@]1(Cn2ccnn2)[C@H](C(=O)O)N2C(=O)C[C@H]2S1(=O)=O` [tazobactam] gave an IC50 of 0.8 nM. Against the preceding compound, the IC50 is about 2.5-fold higher.

The target in another assay is T1, MUN-1 beta-lactamase. Put plainly: kinetic measurement, purified beta-lactamase. The class given is biochemical, Escherichia coli. As to conditions: covalent (acylation without deacylation suggested); details in supplement. An excerpt:
kinetic measurement, purified beta-lactamase on MUN-1 beta-lactamase
As for `CC(C)(O/N=C(\C(=O)N[C@@H]1C(=O)N2C(C(=O)[O-])=C(C[n+]3ccccc3)CS[C@H]12)c1csc(N)n1)C(=O)O` [Ceftazidime], the Ki came out at 580 nM.
Still for that read-out and setting: the same measure for `CCN1CCN(C(=O)N[C@@H](C(=O)N[C@@H]2C(=O)N3[C@@H]2SC(C)(C)[C@@H]3C(=O)O)c2ccccc2)C(=O)C1=O` [Piperacillin]: 7.2 nM.

Staying with this assay, now noted: details in supplement.
`C[C@@H](O)[C@H]1C(=O)N2C(C(=O)O)=C(S[C@@H]3CN[C@H](C(=O)Nc4cccc(C(=O)O)c4)C3)[C@H](C)[C@H]12` [Ertapenem] yielded a Ki of 17 nM.
Still for that read-out and setting: with `C[C@@H](O)[C@H]1C(=O)N2C(C(=O)O)=C(SCCN=CN)C[C@H]12` [Imipenem] the figure was 1.3 nM.
`C[C@@H](O)[C@H]1C(=O)N2C(C(=O)O)=C(S[C@@H]3CN[C@H](C(=O)N(C)C)C3)[C@H](C)[C@H]12` [Meropenem] came in with a Ki of 19 nM.
For `CC1(C)S[C@@H]2[C@H](NC(=O)[C@H](C(=O)O)c3ccsc3)C(=O)N2[C@H]1C(=O)O` [Ticarcillin], the Ki was found to be 3.6 nM.

Another assay relates to T1, MUN-1 beta-lactamase. Put plainly: hydrolysis kinetics, purified beta-lactamase. The format is biochemical, Escherichia coli. The settings on record: details in supplement; read-out: Kinetic measurement / Km. From the text: hydrolysis kinetics, purified beta-lactamase on MUN-1 beta-lactamase
Take `CC1(C)S[C@@H]2[C@H](NC(=O)[C@H](N)c3ccccc3)C(=O)N2[C@H]1C(=O)O` [Ampicillin]: the Km is 280 µM.
On to `C[C@H]1[C@H](NC(=O)/C(=N\OC(C)(C)C(=O)O)c2csc(N)n2)C(=O)N1S(=O)(=O)O` [Aztreonam], for which the Km was 45 µM.
In the case of `CC(=O)OCC1=C(C(=O)O)N2C(=O)[C@@H](NC(=O)Cc3cccs3)[C@H]2SC1` [Cephalothin], the Km stood at 15 µM.
The same measure, in the same setting: the same measure for `CC1(C)S[C@@H]2[C@H](NC(=O)Cc3ccccc3)C(=O)N2[C@H]1C(=O)O` [Penicillin G]: 95 µM.
